# From patent US11339130B1 (Blade Therapeutics, Inc., priority 2016, dated 2022)
# pIC50: −log10 of the molar value.
# Columns and labels:
# [1] = biological target: T1, Human Calpain 1/NS1 (Homo sapiens, UniProt P07384); test: Calpain inhibition continuous fluorescence (FRET) assay, Human Calpain 1/NS1; assay type: biochemical; settings: Column A; read-out: Human Calpain 1/NS1 IC50
# T1 sequence (P07384 1-714): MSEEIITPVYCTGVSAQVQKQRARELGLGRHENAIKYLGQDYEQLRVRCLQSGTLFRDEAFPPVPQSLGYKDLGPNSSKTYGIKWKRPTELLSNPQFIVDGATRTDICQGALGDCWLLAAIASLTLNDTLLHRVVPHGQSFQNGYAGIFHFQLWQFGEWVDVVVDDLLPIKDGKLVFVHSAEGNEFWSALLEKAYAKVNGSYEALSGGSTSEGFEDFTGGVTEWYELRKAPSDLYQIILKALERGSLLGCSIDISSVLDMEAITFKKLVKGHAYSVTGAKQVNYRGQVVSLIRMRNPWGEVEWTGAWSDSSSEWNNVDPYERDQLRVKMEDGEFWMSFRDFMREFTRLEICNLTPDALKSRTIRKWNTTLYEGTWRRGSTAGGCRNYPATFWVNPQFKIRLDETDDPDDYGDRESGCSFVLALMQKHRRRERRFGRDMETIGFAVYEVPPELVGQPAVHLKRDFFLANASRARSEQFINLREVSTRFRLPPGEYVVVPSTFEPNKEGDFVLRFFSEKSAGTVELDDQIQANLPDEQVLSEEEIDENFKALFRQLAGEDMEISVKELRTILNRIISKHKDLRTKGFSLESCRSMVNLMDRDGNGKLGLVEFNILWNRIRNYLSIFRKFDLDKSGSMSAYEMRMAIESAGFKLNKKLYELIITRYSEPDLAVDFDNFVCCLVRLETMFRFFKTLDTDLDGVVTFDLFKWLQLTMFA
# T1 sequence (P04632 1-268 partner): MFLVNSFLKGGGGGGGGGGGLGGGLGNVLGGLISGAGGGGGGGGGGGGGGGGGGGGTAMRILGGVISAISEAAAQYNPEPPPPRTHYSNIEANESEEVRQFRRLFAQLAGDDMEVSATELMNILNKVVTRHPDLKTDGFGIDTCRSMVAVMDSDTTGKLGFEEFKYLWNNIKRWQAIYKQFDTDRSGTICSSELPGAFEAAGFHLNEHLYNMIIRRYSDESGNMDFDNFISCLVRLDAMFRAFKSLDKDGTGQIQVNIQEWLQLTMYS
# Outline: (§1)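 Buffer 50 mM Tris pH 7.5/100 mM NaCl/1 mM DTT; enzyme + cpd preinc 25C; start w/ FRET substrate + CaCl2; kinetic 490/520 nm, 10 min; slopes 1-5 min; 4-PL IC50.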
# [2] = biological target: T2, Human Calpain 2/NS1 (Homo sapiens, UniProt P17655); test: Calpain inhibition continuous fluorescence (FRET) assay, Human Calpain 2/NS1; assay type: biochemical; settings: Column B; read-out: Human Calpain 2/NS1 IC50
# T2 sequence (P17655 1-700): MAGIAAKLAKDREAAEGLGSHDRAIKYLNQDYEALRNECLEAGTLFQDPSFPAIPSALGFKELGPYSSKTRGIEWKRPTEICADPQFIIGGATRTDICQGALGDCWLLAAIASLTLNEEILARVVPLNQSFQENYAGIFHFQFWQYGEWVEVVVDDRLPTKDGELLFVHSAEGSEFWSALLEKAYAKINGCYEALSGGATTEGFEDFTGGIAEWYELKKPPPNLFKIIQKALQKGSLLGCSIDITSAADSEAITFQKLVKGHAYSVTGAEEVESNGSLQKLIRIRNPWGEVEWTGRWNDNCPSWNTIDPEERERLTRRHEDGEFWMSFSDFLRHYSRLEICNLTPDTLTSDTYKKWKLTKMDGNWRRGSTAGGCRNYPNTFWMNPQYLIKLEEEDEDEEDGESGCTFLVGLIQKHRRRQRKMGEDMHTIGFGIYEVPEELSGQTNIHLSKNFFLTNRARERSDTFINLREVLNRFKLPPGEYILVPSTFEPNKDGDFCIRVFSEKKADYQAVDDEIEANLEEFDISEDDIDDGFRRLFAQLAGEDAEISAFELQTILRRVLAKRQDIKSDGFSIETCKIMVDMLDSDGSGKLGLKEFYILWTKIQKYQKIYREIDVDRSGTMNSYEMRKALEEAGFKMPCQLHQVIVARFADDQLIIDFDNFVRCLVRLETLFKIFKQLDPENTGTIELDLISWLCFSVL
# T2 sequence (P04632 1-268 partner): T1 sequence (P04632 1-268 partner)
# Outline: as §1
# [3] = biological target: T3, Human Calpain 9/NS1 (Homo sapiens, UniProt O14815); test: Calpain inhibition continuous fluorescence (FRET) assay, Human Calpain 9/NS1; assay type: biochemical; settings: Column C; read-out: Human Calpain 9/NS1 IC50
# T3 sequence (O14815 1-690): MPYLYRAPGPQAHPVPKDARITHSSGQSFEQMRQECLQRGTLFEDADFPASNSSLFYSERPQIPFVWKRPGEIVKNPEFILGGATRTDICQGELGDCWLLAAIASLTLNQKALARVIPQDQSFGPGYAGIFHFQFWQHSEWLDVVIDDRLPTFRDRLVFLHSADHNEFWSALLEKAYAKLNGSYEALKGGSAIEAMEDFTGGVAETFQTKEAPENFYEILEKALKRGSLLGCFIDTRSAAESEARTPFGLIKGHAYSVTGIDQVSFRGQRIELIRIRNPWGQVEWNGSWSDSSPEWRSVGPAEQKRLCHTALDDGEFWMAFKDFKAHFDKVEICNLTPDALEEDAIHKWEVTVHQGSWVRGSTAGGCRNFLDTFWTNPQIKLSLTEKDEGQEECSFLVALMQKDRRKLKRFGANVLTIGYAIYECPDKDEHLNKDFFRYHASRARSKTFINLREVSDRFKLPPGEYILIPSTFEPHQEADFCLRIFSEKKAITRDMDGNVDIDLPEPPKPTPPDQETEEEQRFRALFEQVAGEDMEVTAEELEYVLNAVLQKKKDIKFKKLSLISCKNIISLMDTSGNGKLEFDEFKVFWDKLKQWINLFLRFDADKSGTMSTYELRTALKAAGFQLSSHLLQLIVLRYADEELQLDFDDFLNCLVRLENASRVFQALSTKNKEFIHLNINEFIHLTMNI
# T3 sequence (P04632 1-268 partner): T1 sequence (P04632 1-268 partner)
# Outline: as §1
# [4] = test system: Calpain activity in SH-SY5Y cells (SBDP-150); test: SH-SY5Y Spectrin western blot assay (SBDP-150 breakdown product, A23187-induced); assay type: cell-based; settings: Homo sapiens; Column D; SH-SY5Y cells, A23187-induced SBDP-150; read-out: SH-SY5Y Spectrin IC50
# [5] = test system: Calpain activity in SH-SY5Y cells; test: SH-SY5Y + AMC fluorescence assay (Suc-LLVY-AMC substrate); assay type: cell-based; settings: Column E, read-out: SH-SY5Y + AMC IC50
Compound,pIC50 [1],pIC50 [2],pIC50 [3],pIC50 [4],pIC50 [5]
"Cc1cc(C(=O)N[C@@H](Cc2ccccc2)C(=O)C(N)=O)n(-c2ncccn2)n1 [Compound 49, (S)—N-(4-amino-3,4-dioxo-1-phenylbutan-2-yl)-3-methyl-1-(pyrimidin-2-yl)-1H-pyrazole-5-carboxamide]",> 5.52,> 5.52,> 5.52,> 5.00,> 5.00
"NC(=O)C(=O)[C@H](Cc1ccccc1)NC(=O)c1cncn1-c1nc2ccccc2s1 [Compound 50, (S)—N-(4-amino-3,4-dioxo-1-phenylbutan-2-yl)-1-(benzo[d]thiazol-2-yl)-1H-imidazole-5-carboxamide]",> 5.52,> 5.52,> 5.52,> 5.00,< 4.60
"Cc1nnn(-c2ccccc2)c1C(=O)N[C@@H](Cc1ccccc1)C(=O)C(N)=O [Compound 55, (S)—N-(4-amino-3,4-dioxo-1-phenylbutan-2-yl)-4-methyl-1-phenyl-1H-1,2,3-triazole-5-carboxamide]",> 5.52,> 5.52,> 5.52,> 5.00,< 4.60
"Cc1noc(-c2ccccc2)c1C(=O)N[C@@H](Cc1c[nH]c2ccccc12)C(=O)C(N)=O [Compound 57, (S)—N-(4-amino-1-(1H-indol-3-yl)-3,4-dioxobutan-2-yl)-3-methyl-5-phenylisoxazole-4-carboxamide]",> 5.52,> 5.52,> 5.52,> 5.00,4.60 to 5.00
Cc1noc(-c2ccccc2)c1C(=O)N[C@@H](Cc1ccc(F)cc1)C(=O)C(N)=O [Compound 58],> 5.52,> 5.52,> 5.52,4.60 to 5.00,< 4.60
"Cc1cc(C(=O)N[C@@H](Cc2ccccc2)C(=O)C(N)=O)n(-c2cnccn2)n1 [Compound 63, (S)—N-(4-amino-3,4-dioxo-1-phenylbutan-2-yl)-3-methyl-1-(pyrazin-2-yl)-1H-pyrazole-5-carboxamide]",> 5.52,> 5.52,> 5.52,> 5.00,> 5.00
"Cc1cc(C(=O)N[C@@H](Cc2ccccc2)C(=O)C(N)=O)n(-c2cccc(-c3ccccc3C)c2)n1 [Compound 81, (S)—N-(4-amino-3,4-dioxo-1-phenylbutan-2-yl)-3-methyl-1-(2′-methyl-[1,1′-biphenyl]-3-yl)-1H-pyrazole-5-carboxamide]",> 5.52,> 5.52,> 5.52,> 5.00,4.60 to 5.00
"Cc1cc(C(=O)N[C@@H](Cc2ccccc2)C(=O)C(N)=O)n(-c2nc(-c3ccccc3)cs2)n1 [Compound 82, (S)—N-(4-amino-3,4-dioxo-1-phenylbutan-2-yl)-3-methyl-1-(4-phenylthiazol-2-yl)-1H-pyrazole-5-carboxamide]",> 5.52,> 5.52,> 5.52,> 5.00,< 4.60
"Cc1cc(C(=O)N[C@@H](Cc2ccccc2)C(=O)C(N)=O)n(-c2ccc(-c3ccccc3)cc2)n1 [Compound 83, (S)-1-([1,1′-biphenyl]-4-yl)-N-(4-amino-3,4-dioxo-1-phenylbutan-2-yl)-3-methyl-1H-pyrazole-5-carboxamide]",> 5.52,> 5.52,> 5.52,> 5.00,< 4.60
"Cc1cccc(-n2nc(C)cc2C(=O)N[C@@H](Cc2ccccc2)C(=O)C(N)=O)n1 [Compound 84, (S)—N-(4-amino-3,4-dioxo-1-phenylbutan-2-yl)-3-methyl-1-(6-methylpyridin-2-yl)-1H-pyrazole-5-carboxamide]",> 5.52,> 5.52,> 5.52,> 5.00,> 5.00

# Now from value to compound:
pIC50 [1],pIC50 [2],pIC50 [3],pIC50 [4],pIC50 [5],Compound
> 5.52,> 5.52,> 5.52,4.60 to 5.00,4.60 to 5.00,"COc1cccc(-n2nc(C)cc2C(=O)N[C@@H](Cc2ccccc2)C(=O)C(N)=O)n1 [Compound 99, (S)—N-(4-amino-3,4-dioxo-1-phenylbutan-2-yl)-1-(6-methoxypyridin-2-yl)-3-methyl-1H-pyrazole-5-carboxamide]"
> 5.52,> 5.52,> 5.52,< 4.60,< 4.60,"Cc1cc(C(=O)N[C@@H](Cc2ccccc2)C(=O)C(N)=O)n(-c2cccc(-c3ccc(F)cc3)c2)n1 [Compound 103, (S)—N-(4-amino-3,4-dioxo-1-phenylbutan-2-yl)-1-(4′-fluoro-[1,1′-biphenyl]-3-yl)-3-methyl-1H-pyrazole-5-carboxamide]"
> 5.52,> 5.52,> 5.52,< 4.60,< 4.60,"Cc1cccc(-c2cccc(-n3nc(C)cc3C(=O)N[C@@H](Cc3ccccc3)C(=O)C(N)=O)c2)c1 [Compound 105, (S)—N-(4-amino-3,4-dioxo-1-phenylbutan-2-yl)-3-methyl-1-(3′-methyl-[1,1′-biphenyl]-3-yl)-1H-pyrazole-5-carboxamide]"
> 5.52,> 5.52,> 5.52,> 5.00,< 4.60,"Cc1cc(C(=O)N[C@@H](Cc2ccccc2)C(=O)C(N)=O)n(-c2cccc(-c3cccc(F)c3)c2)n1 [Compound 106, (S)—N-(4-amino-3,4-dioxo-1-phenylbutan-2-yl)-1-(3′-fluoro-[1,1′-biphenyl]-3-yl)-3-methyl-1H-pyrazole-5-carboxamide]"
> 5.52,> 5.52,> 5.52,> 5.00,> 5.00,"Cc1nc(-c2ccccc2)c(C(=O)N[C@@H](Cc2ccc(F)cc2)C(=O)C(N)=O)o1 [Compound 107, (S)—N-(4-amino-1-(4-fluorophenyl)-3,4-dioxobutan-2-yl)-2-methyl-4-phenyloxazole-5-carboxamide]"
